According to patent US20240173419A1, “CDK2 DEGRADERS AND USES THEREOF” (Kymera Therapeutics, Inc., priority 2022, published 2024):

Molecular target: T1, CDK2 (Homo sapiens, UniProt P24941)
T1 construct: endogenous in cells; host or cells: MKN1 cells
Test: CDK2 degradation in MKN1 cells (AlphaLISA)
Assay type: cell-based
Parameters: key to CDK2 degradation 14 h: Mean external-Abs DC50 (nM): A (<100 nM); B (≥100-500 nM); C (>500-1000 nM); D (>1000 nM); E (not achieved)
Details: 14 h incubation; for DC50: read-out: CDK2 degradation 14 h: Mean external-Abs DC50
Outline: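 DC50 from four-parameter logistic fit of AlphaLISA CDK2 signal, corrected for no-cell wells. Lysates came from MKN1 cells, 2e4 per well, exposed 14 h at 37° C to compound at 0.001 nM-10 μM (1:5 series, 11 doses) in 0.1% DMSO.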

| Structure (SMILES) | CDK2 degradation 14 h: Average Dmax % | DC50 | CDK2 degradation 14 h: Mean external-Abs DC50 (nM) |
| --- | --- | --- | --- |
| Cc1cc(S(=O)(=O)N[C@H]2C[C@H](N3CCN(CC4CCN(c5cccc6c5n(C)c(=O)n6C5CCC(=O)NC5=O)CC4)CC3)C2)ccc1Nc1ncc(C(F)(F)F)c(N2CCC[C@@H](C(F)F)C2)n1 (stereo partly shown) [I-797] | A (A (>75% o)) | < 100 nM |  |
| Cc1cc(S(=O)(=O)NC2CCC(CN3CCN(c4ccc(C5CCC(=O)NC5=O)c(F)c4)CC3)CC2)c(F)cc1Nc1ncc(C(F)(F)F)c(N2CCCC(C)(O)C2)n1 (stereo not shown) [I-1096] | A (A (>75% o)) | < 100 nM |  |
| Cc1cc(S(=O)(=O)NCCOC2CC3(C2)CN(CCCc2ccc4c(c2)n(C)c(=O)n4C2CCC(=O)NC2=O)C3)ccc1Nc1ncc2ccc(=O)n(C3CCCC3)c2n1 (stereo not shown) [I-472] | A (A (>75% o)) | < 100 nM |  |
| Cc1cc(S(=O)(=O)N[C@H]2CC[C@H](OCCN3CCC(c4ccc5c(c4)n(C)c(=O)n5C4CCC(=O)NC4=O)CC3)CC2)ccc1Nc1ncc2cc(Cl)c(=O)n(C3CCCC3)c2n1 (stereo partly shown) [I-419] | A (A (>75% o)) | < 100 nM |  |
| Cc1cc(S(=O)(=O)NC2CCC(CN3CCN(c4ccc(C5CCC(=O)NC5=O)cc4F)CC3C)CC2)ccc1Nc1ncc2c(n1)N(C1CCCC(O)C1)C(=O)C21CC1 (stereo not shown) [I-966] | A (A (>75% o)) | < 100 nM |  |
| Cc1cc(S(=O)(=O)C2CCN(CCC3CCN(c4cccc5c4n(C)c(=O)n5C4CCC(=O)NC4=O)CC3)CC2)ccc1Nc1ncc2cc(Cl)c(=O)n(C(C)C)c2n1 (stereo not shown) [I-11] | A (A (>75% o)) | < 100 nM |  |
| Cc1cc(S(=O)(=O)NC2CC(N3CCCN(CC4CCN(c5cccc6c5n(C)c(=O)n6C5CCC(=O)NC5=O)CC4)CC3)C2)ccc1Nc1ncc(C(F)(F)F)c(N2CCCC(C)(O)C2)n1 (stereo not shown) [I-704] | A (A (>75% o)) | < 100 nM |  |
| Cc1cc(S(=O)(=O)NCCO[C@H]2CC[C@H](CN3CCC(c4ccc5c(c4)n(C)c(=O)n5C4CCC(=O)NC4=O)CC3)CC2)ccc1Nc1ncc2cc(C(F)F)c(=O)n(C(C)C)c2n1 (stereo partly shown) [I-428] | A (A (>75% o)) | < 100 nM |  |
| CC1(O)CCCN(c2nc(Nc3ccc(S(=O)(=O)NC4CCC(CN5CCN(c6ccc(C7CCC(=O)NC7=O)cc6)CC5)CC4)cc3Cl)ncc2C(F)(F)F)C1 (stereo not shown) [I-1100] | A (A (>75% o)) | < 100 nM |  |
| Cn1c(=O)n(C2CCC(=O)NC2=O)c2ccc(N3CCC(CN4CCC(NS(=O)(=O)c5ccc(Nc6ncc(C(F)(F)F)c(N7CCCC(C)(O)C7)n6)c(F)c5)C(F)C4)CC3)cc21 (stereo not shown) [I-1039] | A (A (>75% o)) | < 100 nM |  |
| Cc1cc(S(=O)(=O)NC2CCC(CN3CCN(c4c(F)cc(C5CCC(=O)NC5=O)cc4Cl)CC3)CC2)ccc1Nc1ncc(C(F)(F)F)c(N2CCCC(C)(O)C2)n1 (stereo not shown) [I-941] | A (A (>75% o)) | < 100 nM |  |
| Cc1cc(S(=O)(=O)C2CC3(CCN(CC4CCN(c5cccc(NC6CCC(=O)NC6=O)c5)CC4)CC3)C2)ccc1Nc1ncc2cc(Cl)c(=O)n(C3CCCC3)c2n1 (stereo not shown) [I-87] | A (A (>75% o)) | < 100 nM |  |
| Cc1cc(S(=O)(=O)NC2CCC(CN3CCN(c4cccc(NC5CCC(=O)NC5=O)c4)CC3)CC2)ccc1Nc1ncc(C(F)(F)F)c(N2CCCC(C)(O)C2)n1 (stereo not shown) [I-775] | A (A (>75% o)) | < 100 nM |  |
| Cc1cc(S(=O)(=O)C2CCC(N3CC4(CCN(c5cccc6c5n(C)c(=O)n6C5CCC(=O)NC5=O)CC4)C3)CC2)ccc1Nc1ncc2c(n1)N(C1CCCC1)C(=O)C21CC1 (stereo not shown) [I-39] | B (B (>50% -75%)) | < 100 nM |  |
| Cc1cc(S(=O)(=O)N2CCC(CN(C)C3CCN(c4cccc5c4n(C)c(=O)n5C4CCC(=O)NC4=O)CC3)CC2)ccc1Nc1ncc(C(F)(F)F)c(-c2cnn(C)c2)n1 (stereo not shown) [I-1155] | A (A (>75% o)) | < 100 nM |  |
| Cc1cc(S(=O)(=O)NC2CCC(CN3CCN(c4ccc(C5CCC(=O)NC5=O)c(F)c4)CC3)CC2)cc(F)c1Nc1ncc(C(F)(F)F)c(N2CCCC(C)(O)C2)n1 (stereo not shown) [I-1097] | A (A (>75% o)) | < 100 nM |  |
| Cc1cc(S(=O)(=O)NC2CCN(CC3CCN(c4ccc(C5CCC(=O)NC5=O)cc4F)CC3)CC2F)ccc1Nc1ncc(C(F)(F)F)c(N2CCCC(C)(O)C2)n1 (stereo not shown) [I-1054] | A (A (>75% o)) | < 100 nM |  |
| COc1cc(N2CCC(CN3CCC4(CC3)CC(S(=O)(=O)c3ccc(Nc5ncc6cc(Cl)c(=O)n(C7CCCC7)c6n5)c(C)c3)C4)CC2)ccc1NC1CCC(=O)NC1=O (stereo not shown) [I-72] | A (A (>75% o)) | 100 to 500 nM |  |
| CC1(O)CCCN(c2nc(Nc3ccc(S(=O)(=O)NC4CCC(CN5CCN(c6ccc(C7CCC(=O)NC7=O)cc6F)CC5)CC4)cc3C(F)(F)F)ncc2C(F)(F)F)C1 (stereo not shown) [I-1110] | B (B (>50% -75%)) | 100 to 500 nM |  |

| Structure (SMILES) | CDK2 degradation 14 h: Average Dmax % | DC50 | CDK2 degradation 14 h: Mean external-Abs DC50 (nM) |
| --- | --- | --- | --- |
| Cc1cc(S(=O)(=O)NC2CCC(CN3CCN(c4ccc(C5CCC(=O)NC5=O)cc4Cl)CC3)CC2)ccc1Nc1ncc(C(F)(F)F)c(N2CCCC(C)(O)C2)n1 (stereo not shown) [I-807] | A (A (>75% o)) | < 100 nM |  |
| Cc1cc(S(=O)(=O)NCCOCCOCCNC(=O)COc2ccc(C3CCC(=O)NC3=O)cc2)ccc1Nc1ncc2cc(Cl)c(=O)n(C3CCCC3)c2n1 (stereo not shown) [I-401] | B (B (>50% -75%)) | < 100 nM |  |
| Cc1cc(S(=O)(=O)[C@H]2CC[C@H](CN(C)C3CCN(c4cccc5c4n(C)c(=O)n5C4CCC(=O)NC4=O)CC3)CC2)ccc1Nc1ncc2c(n1)N(C1CCCC1)C(=O)C21CC1 (stereo partly shown) [I-53] | A (A (>75% o)) | < 100 nM |  |
| Cc1cc(S(=O)(=O)C2CC3(CCN(CC4CCN(c5ccc(F)c(NC6CCC(=O)NC6=O)c5)CC4)CC3)C2)ccc1Nc1ncc2cc(Cl)c(=O)n(C3CCCC3)c2n1 (stereo not shown) [I-70] | B (B (>50% -75%)) | > 1000 nM |  |
| CCc1cnc(Nc2ccc(S(=O)(=O)C3CC4(CCN(CC5CCN(c6cccc7c6n(C)c(=O)n7C6CCC(=O)NC6=O)CC5)CC4)C3)cc2C)nc1C1CCC(C)(O)CC1 (stereo not shown) [I-514] | D (D (<25%)) | > 1000 nM |  |
| CCOc1cc(NC2CCC(=O)NC2=O)ccc1N1CCC(CN2CCC3(CC2)CC(S(=O)(=O)c2ccc(Nc4ncc5cc(Cl)c(=O)n(C6CCCC6)c5n4)c(C)c2)C3)CC1 (stereo not shown) [I-309] | A (A (>75% o)) | 100 to 500 nM |  |
| Cn1c(=O)n(C2CCC(=O)NC2=O)c2ccc(N3CCC(CN4CCC5(CC4)CC(S(=O)(=O)c4ccc(Nc6ncc(C(F)(F)F)c(N7CCCC(C)(O)C7)n6)c(Cl)c4)C5)CC3)c(F)c21 (stereo not shown) [I-855] | B (B (>50% -75%)) | < 100 nM |  |
| Cc1cc(S(=O)(=O)NCCOC2CCC3(CC2)CCN(CCCc2ccc4c(c2)n(C)c(=O)n4C2CCC(=O)NC2=O)CC3)ccc1Nc1ncc2ccc(=O)n(C3CCCC3)c2n1 (stereo not shown) [I-470] | A (A (>75% o)) | < 100 nM |  |
| Cc1cc(S(=O)(=O)N[C@@H]2CCN(CC3CCN(c4ccc(C5CCC(=O)NC5=O)cc4F)CC3)C[C@H]2F)ccc1Nc1ncc(C(F)(F)F)c(N2CCC[C@](C)(O)C2)n1 (stereo partly shown) [I-804] | A (A (>75% o)) | < 100 nM |  |
| Cc1cc(S(=O)(=O)C2CC3(CCN(CC4CCN(c5ccc6c(c5F)n(C)c(=O)n6C5CCC(=O)NC5=O)CC4)CC3)C2)ccc1Nc1cc2cnc(Cl)cc2n(C2CCCC2)c1=O (stereo not shown) [I-825] | D (D (<25%)) | > 1000 nM |  |
| Cc1cc(S(=O)(=O)C2CC3(CCN(CC4CCN(c5cccc6c5n(C)c(=O)n6C5CCC(=O)NC5=O)CC4)CC3)C2)ccc1Nc1ncc2c(n1)N(C1CCCC1)C(=O)C21CC1 (stereo not shown) [I-42] | A (A (>75% o)) | < 100 nM |  |
| Cc1cc(S(=O)(=O)N2CCC(N3CCC(CN(C)c4cccc5c4n(C)c(=O)n5C4CCC(=O)NC4=O)CC3)CC2)ccc1Nc1ncc2cc(C(F)F)c(=O)n(C3CCCC34CC4)c2n1 (stereo not shown) [I-383] | A (A (>75% o)) | < 100 nM |  |
| Cc1cc(S(=O)(=O)NC2CC(N3CCN(CC4CCN(c5cc(NC6CCC(=O)NC6=O)ccc5Cl)CC4)CC3)C2)ccc1Nc1ncc(C(F)(F)F)c(N2CCCC(C)(O)C2)n1 (stereo not shown) [I-720] | A (A (>75% o)) | < 100 nM |  |
| Cn1nc(N2CCC(=O)NC2=O)c2ccc(C3CCN(Cc4cccc(S(=O)(=O)N5CCC(Nc6ncc7ccc(=O)n(C8CCCC8)c7n6)CC5)c4)CC3)cc21 [I-968] | A (A (>75% o)) | < 100 nM |  |
| O=C1CCC(c2ccc(N3CCC(CN4CCC(NS(=O)(=O)c5ccc(Nc6ncc7c(n6)N(C6CCCC(O)C6)C(=O)C76CC6)c(F)c5)C(F)C4)CC3)cc2F)C(=O)N1 (stereo not shown) [I-950] | A (A (>75% o)) | < 100 nM |  |
| Cc1cc(S(=O)(=O)N2CCC(CCN3CCN(c4ccc5c(c4F)n(C)c(=O)n5C4CCC(=O)NC4=O)CC3)CC2)ccc1Nc1ncc2ccc(=O)n(C3CCCC3)c2n1 (stereo not shown) [I-287] | A (A (>75% o)) | < 100 nM |  |
| Cc1cc(S(=O)(=O)N2CCC(CN3CCN(c4cccc5c4n(C)c(=O)n5C4CCC(=O)NC4=O)CC3)CC2)ccc1Nc1ncc2ccc(=O)n(C3CCCC3)c2n1 (stereo not shown) [I-451] | C (C (>25% -50%)) |  | E |
| Cc1cc(S(=O)(=O)N2CCC3(CCN(c4cccc5c4n(C)c(=O)n5C4CCC(=O)NC4=O)CC3)CC2)ccc1Nc1ncc2cc(Cl)c(=O)n(C(C)C)c2n1 (stereo not shown) [I-380] | D (D (<25%)) | > 1000 nM |  |
| Cc1cc(S(=O)(=O)C2CC3(CCN(CC4CCN(c5ccc6c(c5F)n(C)c(=O)n6C5CCC(=O)NC5=O)CC4)CC3)C2)ccc1Nc1ncc(C(F)(F)F)c(N2CCCC(C)(O)C2)n1 (stereo not shown) [I-518] | A (A (>75% o)) | < 100 nM |  |
